Laboratory results published in US9616047B2, “Inhibitors of beta-catenin in treatment of colorectal cancer” (Regents of the University of Minnesota, priority 2014, dated 2017).

Experiments:
[1] = system: β-catenin/Tcf-4 luciferase activity; assay: β-catenin/Tcf-4 luciferase assay of HI-B9 derivatives (cell line not stated); type: cell-based; conditions: FIG. 6A
Procedure: (§1) (B) HI-B16 inhibited anchorage-independent growth of colon cancer cells. HCT116, HT29, DLD1 and SW480 were incubated in agar plate with or without HI-B16 and HI-B9. In every case, HI-B16 was better than HI-B9 treatment.
Transient transfection was performed using jetPEI and assays to detect firefly luciferase and Renilla activities according to the manufacturer's manual (Promega). Briefly, cells were seeded onto 10-cm plates and co-transfected with 400 ng of the Renilla luciferase internal control gene and 4 μg of the TOP-flash luciferase reporter construct containing three tandem Tcf consensus binding sites upstream of luciferase cDNA, or the FOPflash luciferase reporter construct, a plasmid with mutated Tcf binding sites. After 16 h of transfection, cells were trypsinized and seeded onto 48-well plates, and cells were treated with respective chemicals for 24 h. Luciferase and Renilla activities were measured using their substrates.

[2] = system: HCT116 colon cancer cells; assay: Soft agar assay, anchorage-independent growth, HCT116; type: cell-based
Procedure: (§2) FIG. 2. […] HCT116 and HT-29 colon cancer cells. Colony formation of two cell lines were inhibited by treatment of β-catenin inhibitor candidates. Cells (8×10^3/ml) were incubated with or without HI-B5 or HI-B9 compounds in 1 mL of 0.33% BME agar containing 10% FBS or in 3.5 mL of 0.5% BME agar containing 10% FBS. The cultures were maintained at 37° C. in a 5% CO2 incubator for 7 days, after which the cell colonies were counted under a microscope.
(§3) Cells (8×10^3 per well) suspended in Basal Medium Eagle (BME) supplemented with 10% FBS were added to 0.3% agar with different doses of chemicals in a top layer over a basal layer of 0.6% agar. The cultures were maintained at 37° C. in a 5% CO2 incubator for 2 wk and then colonies were counted under a microscope using the Image-Pro Plus Software (v.4) program (Media Cybernetics).

[3] = system: HT-29 colon cancer cells; assay: Soft agar assay, anchorage-independent growth, HT29; type: cell-based
Procedure: as §2, §3

[4] = system: DLD1; assay: Soft agar assay, anchorage-independent growth, DLD1; type: cell-based
Procedure: as §1, §3

[5] = system: SW480; assay: Soft agar assay, anchorage-independent growth, SW480; type: cell-based
Procedure: as §1, §3

[6] = system: colon cancer cells; assay: Proliferation and anchorage-independent growth of colon cancer cells (statements over several lines); type: cell-based; conditions: every cell line tested: HCT116, HT29, DLD1 and SW480
Procedure: as §3

[7] = system: β-catenin; assay: Ex vivo pull-down with compound-conjugated Sepharose 4B beads and colon cancer cell lysate: β-catenin; type: binding; conditions: colon cancer cell lysates; compound-conjugated Sepharose 4B beads
Procedure: Protein extracts (500 μg) of colon cancer cells were mixed with Sepharose-4B beads (as a negative control) or chemical-conjugated Sepharose 4B beads (100 μl) in reaction buffer. After being washed five times with buffer, the proteins were visualized by Western blot analysis.

[8] = target: T1, human β-catenin (126-781 amino acid residues) (Homo sapiens, UniProt P35222); assay: In vitro binding assay with purified β-catenin and compound-conjugated sepharose 4B bead
T1 construct: human β-catenin (126-781 amino acid residues)
T1 sequence (P35222 126-781): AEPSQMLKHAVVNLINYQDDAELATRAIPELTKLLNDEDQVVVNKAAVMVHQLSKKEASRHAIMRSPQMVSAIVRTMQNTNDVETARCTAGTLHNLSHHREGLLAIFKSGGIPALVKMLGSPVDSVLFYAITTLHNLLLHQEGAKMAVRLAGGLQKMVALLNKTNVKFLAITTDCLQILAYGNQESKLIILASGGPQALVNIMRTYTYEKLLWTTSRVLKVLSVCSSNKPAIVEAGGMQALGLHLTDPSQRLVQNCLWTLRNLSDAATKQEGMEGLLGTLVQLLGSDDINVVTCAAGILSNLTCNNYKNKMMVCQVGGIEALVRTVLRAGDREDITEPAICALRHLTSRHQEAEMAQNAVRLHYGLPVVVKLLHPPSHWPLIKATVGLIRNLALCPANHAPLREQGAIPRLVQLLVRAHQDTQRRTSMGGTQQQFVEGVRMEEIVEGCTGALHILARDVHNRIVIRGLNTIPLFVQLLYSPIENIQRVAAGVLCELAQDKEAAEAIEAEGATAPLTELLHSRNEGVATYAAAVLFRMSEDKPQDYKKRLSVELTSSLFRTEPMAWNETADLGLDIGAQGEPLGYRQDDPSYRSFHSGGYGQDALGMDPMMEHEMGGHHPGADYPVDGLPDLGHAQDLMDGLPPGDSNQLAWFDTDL
Procedure: FIGS. 7A-C. […] 2% of input from each experiments were used to show equal amount of incubated protein (purified or total cell lysates).
Based on the structure of the active compound HI-B9, additional analogs HI-B12, 13, 16, 17 and 20 (FIG. 5) were de novo designed and synthesized. […] 2% of input from each experiments were used to show equal amount of incubated protein (purified or total cell lysates).

[9] = system: c-Myc and cyclin D1; assay: Western blot analysis of β-catenin/Tcf-4 targets; type: cell-based
Procedure: Proteins from cell lysates were prepared, separated by SDS-PAGE and transferred to Immobilon-P membranes (Millipore Corporation, Billerica, Mass.). Membranes were blocked with 5% nonfat dry milk for 1 h at room temperature and incubated with each of the primary and secondary antibodies. The signal was detected with a chemiluminescence reagent (Amersham).

`O=C(CC1(O)C(=O)Nc2ccc(F)cc21)c1ccc(O)c(C23CC4CC(CC(C4)C2)C3)c1` (centres unmarked) [HI-B16] was tested, and the “inhibitory effect in β-catenin/Tcf-4 luciferase assay compared with HI-B9” value [1] was “exerted inhibitory effects better than HI-B9”, the “inhibition of luciferase activity” value ([1]; concentration not given) was roughly 90% and the “anchorage-independent growth (colony formation in soft agar)” value [2] was “inhibit anchorage-independent growth”. The “anchorage-independent growth (colony formation in soft agar)” value [3] was “inhibit anchorage-independent growth”, the “anchorage-independent growth (colony formation in soft agar)” value [4] was “inhibit anchorage-independent growth” and the “anchorage-independent growth (colony formation in soft agar)” value [5] was “inhibit anchorage-independent growth”. For the same compound, the “inhibition of anchorage-independent growth compared with HI-B9 treatment” value [6] was “more effective than HI-B9”, the “binding to β-catenin (ex vivo pull-down)” value [7] was “resulted in HI-B16/β-catenin binding” and the “binding of purified β-catenin to compound-conjugated bead (in vitro)” value [8] was “bound”. The “protein expression of c-Myc and cyclin D1” value [9] was “inhibited cyclin D1 and c-myc expression” and the “β-catenin and Tcf-4 expression level” value [9] was “not affected”.
